From article PMC6891695, “Evaluation of Antifouling Potential and Ecotoxicity of Secondary Metabolites Derived from Red Algae of the Genus Laurencia” (Marine Drugs, 2019)

Experiments:
Pseudomonas putita = assay: Marine bacteria growth assay (disc diffusion); assay type: cell-based; conditions: 24 h at 25 °C
Protocol: (§1) The ability of selected metabolites to inhibit the growth of bacteria was assessed using five strains of marine bacteria involved in marine surface biofilm formation, namely, B. subtilis, B. mojavensis, B. thuringiensis, P. putita and P. pseudoalcaligenes. Bacterial strains were maintained on Zobel marine agar plates. Sterile filter paper discs (4 mm) (GF/F; GE Healthcare, Little Chalfont, UK) were loaded with 40 μL samples of serial dilutions of each tested metabolite, allowed to dry at room temperature and then placed on agar plates (Zobel marine agar, pH = 7.3), which were seeded with a single strain of bacteria. Plates were incubated for 24 h at 25 °C. Marine bacteria growth inhibition was determined by measuring the zone of inhibition in mm around the filter paper disc. As a positive and negative control, standard discs were loaded with 40 μL of 0.5 M penicillin G (2 to 10 mm diameter) or solvent (40 μL methanol), respectively.

[1] = test system: Pseudomonas pseudoalcaligenes; assay: Marine bacteria growth assay (disc diffusion); assay type: cell-based; conditions: 24 h at 25 °C
Protocol: as §1

Bacillus subtilis = assay: Marine bacteria growth assay (disc diffusion); assay type: cell-based; conditions: 24 h at 25 °C
Protocol: as §1

Bacillus thuringiensis = assay: Marine bacteria growth assay (disc diffusion); assay type: cell-based; conditions: 24 h at 25 °C
Protocol: as §1

RTL-W1 cell line [2] = assay: RTL-W1 alamar blue/resazurin assay (mitochondria function); assay type: cell-based, rainbow trout; conditions: for EC50: Oncorhynchus mykiss, RTL-W1, Alamar blue/Resazurin assay, 48 h incubation; for effect on general metabolism and mitochondrial activity (in words): RTL-W1
Protocol: (§2) The RTL-W1 cell line, a non-transformed rainbow trout liver cell line that has already been used in environmental toxicity assays, was established from the normal liver of an adult rainbow trout by proteolytic dissociation of liver fragments. RTL-W1 cells were cultured in 75 cm^2 culture flasks (Orange Scientific, Braine l’Alleud, Belgium) at 20 °C in Leibovitz’s (L-15, Sigma-Aldrich, St. Louis, MO, USA) medium supplemented with 5% fetal bovine serum (FBS) and 1% L-glutamine in CO2-free incubator. For the cytotoxicity assays of the selected secondary metabolites, cells were seeded at 3 × 10^4 cells/well density in a 96-well tissue culture plate (Orange Scientific Braine l’Alleud, Belgium) in 100 μL culture medium/well for 2 days before the assays. Three different cytotoxicity protocols were used: 1) The alamar blue/resazurin fluorometric/colorimetric cell viability assay to assess the metabolic capacity and mitochondrial function; 2) the crystal violet cell viability assay for indirect quantification of cell death; and 3) the neutral red cell proliferation assay for lysosomal activity. Two days after seeding the cells, cultures were incubated with various concentrations of selected secondary metabolites at 20 °C for 48 h before cell viability was assessed. […] For the alamar blue/resazurin fluorometric/colorimetric cell viability assay, 100 μL of 3 μg/100 μL Resazurin sodium salt (Sigma-Aldrich, St. Louis, MO, USA) in incubation medium was added on each well and incubated under sterile conditions at 20 °C for 4 h. For the crystal violet cell viability assay, after 48 h of incubation with each secondary metabolite, the culture medium was aspirated and cells were washed twice with sterile dd. H2O. The final wash was aspirated and 50 μL of 0.5% (w/v) crystal violet staining solution (20% methanol in dd. H2O) was added to each well followed by incubation for 20 min at room temperature on a bench rocker with a frequency of 20 oscillations per minute. The staining solution was then aspirated and the plate was washed four times with sterile dd. H2O and left to air-dry without its lid for 3 h at room temperature. Next, 200 μL of methanol was added to each well, and the plate was incubated with its lid on for 20 min at room temperature on a bench rocker with a frequency of 20 oscillations per minute. For the neutral red cell proliferation assay, after 48 h of incubation with each secondary metabolite, the culture medium was aspirated and cells were washed twice with phosphate-buffered saline (PBS, pH 7.4). Cells were then incubated with 100 μL of a 40 μg/mL neutral red staining solution in culture medium at 20 °C for 4 h followed by two washes with 150 μL of PBS. Then cells were incubated with 100 μL neutral red destain solution (50% ethanol, 49% dd. H2O, 1% glacial acetic acid) for 10 min on a bench rocker with a frequency of 80 oscillations per minute. Absorbance was read at 570 nm for alamar blue/resazurin and crystal violet and at 540 nm for neutral red using a Tecan infinite M200 Pro microplate reader. For each assay and each secondary metabolite, a minimum of four independent dose–response experiments with three replicates each were carried out. Calculations were carried out using detailed formulas (AbCam, Cambridge, UK, and results were analyzed with GraphPad Prism v.6.
For EC50 or IC50 (the concentration that results in 50% stimulation or inhibition relative to the control) calculations in GraphPad Prism v.6, all data were fitted to the curve according to the following models for normalized response: Y = 100/(1 + 10^((X − LogIC50))) or Y = 100/(1 + 10^((LogEC50 − X))) depending on the trend of the curve.

RTL-W1 cell line [3] = assay: RTL-W1 neutral red assay (lysosome activity); assay type: cell-based, rainbow trout; conditions: Oncorhynchus mykiss, 48 h incubation
Protocol: as §2, with “For the neutral red cell proliferation assay, after 48 h of incubation with each secondary metabolite, the culture medium was aspirated and cells were washed twice with phosphate-buffered saline (PBS, pH 7.4). Cells were then incubated with 100 μL of a 40 μg/mL neutral red staining solution in culture medium at 20 °C for 4 h followed by two washes with 150 μL of PBS. Then cells were incubated with 100 μL neutral red destain solution (50% ethanol, 49% dd. H2O, 1% glacial acetic acid) for 10 min on a bench rocker with a frequency of 80 oscillations per minute.” left out, “For each assay and each secondary metabolite, a minimum of four independent dose–response experiments with three replicates each were carried out.” left out, “v.6. […]” for “v.6.”

A. amphitrite cyprids = assay: Substrate exploration analysis: SIPC deposition by cyprids (anti-SIPC Western blot on wells); assay type: in vivo, Amphibalanus amphitrite; conditions: for effect on deposition of SIPC protein on the surface of the bioassay plates: concentrations at the EC50 values, p > 0.05; for effect on deposition of SIPC protein on the surface of the bioassay plates / effect on adjusted integrated density of anti-SIPC immunoreactive signals: 24 h; for effect on adjusted integrated density of anti-SIPC immunoreactive signals: indicated concentrations, unpaired two-tailed t-test with Welch's correction
Protocol: To test the substrate exploratory behaviour of A. amphitrite cyprids in the presence of selected metabolites, settlement bioassays were conducted by adding 10 cyprids into individual wells of a 24-well polystyrene sterile microplate (Orange Scientific, Braine l’Alleud, Belgium) containing 2 mL of ASW (25‰). These experiments were repeated twice with four replicates per experiment. Plates were covered and sealed with Parafilm® to avoid evaporation and incubated at 25 °C away from any light source for 24 h. Then, the 2 mL of ASW was aspirated from each well and all settled and non-settled cyprids were counted and removed. Wells were then blocked by incubation with 5% BSA in TBST (25 mM Tris-HCl, pH 7.5, 150 mM NaCl, 0.1% Tween 20) for 1 h at room temperature. Wells were then incubated for 1 h at room temperature with the mouse anti-SIPC monoclonal antibody at 1:100 dilution of the cloned cell line culture supernatant in TBST with 5% BSA, washed with TBST (3 × 5 min) and incubated with an HRP-conjugated anti-mouse antibody (1:1000, Cell Signaling Technology, Danvers, MA, USA) for 1 h at room temperature. Wells were then washed with TBST (3 × 5 min) and immunostaining was detected using the 20 × LumiGLO® chemiluminescence kit (Cell Signaling Technology, Danvers, MA, USA) in a Bio-Rad ChemiDoc XRS + Gel Photo Documentation System. To measure the relative intensity of immunoreactive spots on this format of Western blots, images were analyzed with ImageJ 1.52k (NIH, Bethesda, MD, USA), and the adjusted integrated density of the signals was calculated using the formula: Adjusted integrated density (IntDen) = IntDen of experimental region of interest (ROI)—(mean of background ROI × area of experimental ROI). Data were exported and statistically analyzed with GraphPad Prism v.6 using unpaired, two-tailed t-tests at p = 0.05, with Welch’s correction.

SMILES | effect on bacterial growth (Pseudomonas putita) | effect on bacterial growth [1] | effect on bacterial growth (Bacillus subtilis) | effect on bacterial growth (Bacillus thuringiensis) | EC50 (RTL-W1 cell line [2]) [µM] | effect on general metabolism and mitochondrial activity (in words) (RTL-W1 cell line [2]) | EC50 (RTL-W1 cell line [3]) [µM] | effect on deposition of SIPC protein on the surface of the bioassay plates (A. amphitrite cyprids) | effect on adjusted integrated density of anti-SIPC immunoreactive signals (A. amphitrite cyprids) | effect on deposition of SIPC by the cyprids relative to control (ASW) (A. amphitrite cyprids; 10 μM)
C=C(C1CCC(C)(O)C(Br)C1)C1C(Br)C2C(CCC2(C)O)C1(C)C (centres unmarked) [Compound 19, neorogioldiol] | none of these metabolites had any effect | none of these metabolites had any effect | none of these metabolites had any effect | none of these metabolites had any effect | > 1000 | none of the three tested metabolites had an effect | > 1000 |  |  | 
CC1=C2CC[C@@](C)(Cl)[C@@H](Br)C[C@]2(C)[C@@H](C)[C@@H](Br)[C@@H]1O [Compound 9, perforenol] | none of these metabolites had any effect | none of these metabolites had any effect | none of these metabolites had any effect | none of these metabolites had any effect | > 1000 | none of the three tested metabolites had an effect | > 1000 | no statistically significant effect | none of the two tested compounds (p > 0.05) affected | 
C=CC(C)(O)CC[C@@H]1C(=C)CC[C@@H](Br)[C@@]1(C)CCC1OC1(C)C (some centres unmarked) [Compound 18] | none of these metabolites had any effect | none of these metabolites had any effect | none of these metabolites had any effect | none of these metabolites had any effect | > 1000 | none of the three tested metabolites had an effect | 138 |  |  | 
CC(C)[C@@H]1CC=C[C@H]2[C@H]3[C@](C)(CC[C@]12CBr)[C@@H](Br)CC[C@@]3(C)O [Bromosphaerol, reference compound] | none of these metabolites had any effect | none of these metabolites had any effect | none of these metabolites had any effect | none of these metabolites had any effect | > 1000 |  | 144 | no statistically significant effect | none of the two tested compounds (p > 0.05) affected | did not affect deposition of SIPC
